Where “and” joins values, the source holds several entries; their conditions need not be identical. Identical values can stand only once. Marks after values point to notes of the source that are not given here.
How the values were obtained:
E. coli AID#172 [1] = experiment: Neutropenic thigh infection model, dose-response and estimation of ED50 (Example 4); type: in vivo, Escherichia coli
Experimental: (§1) The purpose of this study was to investigate the dose-response relationship following intravenous (i.v.) administration of a single dose of NZ17074 ranging from 0.16-12 mg/kg. The effect was tested against E. coli AID#172 in the neutropenic thigh model. Treatment with 40 mg/kg meropenem was included as a positive control group. The colony counts in thighs were determined at 5 hours after treatment.
The thigh infection model is a well-recognized model for studies of antimicrobial effect and tissue penetration as described by S. Gudmundsson & H. Erlensdóttir: Handbook of Animal Models of Infection (1999), ed. by O. Zak & M. A. Sande, Academic Press, San Diego, US and in several publications. Reviewed by D. Andes & C. Craig: Animal model pharmacokinetics and pharmacodynamics: a critical review. International Journal of Antimicrobial Agents 19(4): 261-268.
• 40 outbred, NMRI female mice, 25-30 grams (Harlan Scandinavia) • E. coli AID#172 from Statens Serum Institute, Copenhagen, Denmark: Clinical isolate from a human wound from 2003. Multiresistant (Ampicillin, Ceftazidime, Aztreonam, Gentamicin, Ciprofloxacin) • NZ17074 in Ringer Acetate, pH 6: 1.2 mg/ml, 6.0 ml. The solution was stored at 4° C. until use. Analyses of the dose formulations used were performed after completion of the in-life phase of the study and gave the following results: […]
(§2) The mice were observed during the study and scored 0-5 based on their behaviour and clinical signs. • Score 0: Healthy. • Score 1: Minor clinical signs of infection and inflammation e.g. observations of minor signs of distress or changed activity. • Score 2: Clear signs of infection like, social withdrawal, lack of curiosity, changed body position, piloerection, or changes in pattern of movement. • Score 3: Severe signs of infection like stiff movements, lack of curiosity, changed body position, piloerection, pain, or changes in pattern of movement. • Score 4: Severe pain and the mouse was sacrificed immediately to minimize the suffering of the animal. • Score 5: The mouse was dead.
Colony counts were determined from thighs at 0 and 5 hours. […]

E. coli AID#172 [2] = experiment: Neutropenic murine peritonitis/sepsis model, dose-response and estimation of ED50 (Example 2); type: in vivo, Escherichia coli; design: key to Clinical score T = 0 hour / Clinical score T = 5 hours: Score 0: Healthy.; Score 1: Minor clinical signs of infection and inflammation e.g. observations of minor signs of distress or changed activity.; Score 2: Clear signs of infection like, social withdrawal, lack of curiosity, changed body position, piloerection, or changes in pattern of movement.; Score 3: Severe signs of infection like stiff movements, lack of curiosity, changed body position, piloerection, pain, or changes in pattern of movement.; Score 4: Severe pain and the mouse was sacrificed immediately to minimize the suffering of the animal.; Score 5: The mouse was dead
Experimental: as §1, with “peritonitis” for “thigh”, “blood and peritoneal fluid” for “thighs”
The murine peritonitis/sepsis model is a well-recognized model for studies of antimicrobial activity as described by N. Frimodt-Møller and J. D. Knudsen in Handbook of Animal Models of Infection (1999), ed. by O. Zak & M. A. Sande, Academic Press, San Diego, US.
• 30 outbred, NMRI female mice, 25-30 grams (Harlan Scandinavia) • E. coli AID#172 from Statens Serum Institute, Copenhagen, Denmark. Clinical isolate from a human wound from 2003. Multiresistant (Ampicillin, Ceftazidime, Aztreonam, Gentamicin, Ciprofloxacin) • NZ17074 in Ringer Acetate, pH 6: 1.2 mg/ml, 6.0 ml. The solution was stored at 4° C. until use. Analyses of the dose formulations used were performed after completion of the in-life phase of the study and gave the following results:
The mice were rendered neutropenic by injecting 0.5 ml cyclophosphamide solution intraperitoneally 4 days (200 mg/kg) and 1 day (100 mg/kg) prior to inoculation.
Fresh overnight E. coli AID#172 colonies from a 5% Horse Blood Agar plate were suspended and diluted in sterile saline to approximately 2×10^6 CFU/ml. One hour before start of treatment (time −1 hr) mice were inoculated intraperitoneally with 0.5 ml of the E. coli suspension in the lateral lower quadrant of the abdomen. Approximately ½-1 hour after treatment, mice were treated orally with 45 microliters neurophen (20 mg ibuprofen/ml corresponding to 30 mg/kg) as a pain relief.
The mice were treated i.v. in the lateral tail vein over approximately 30 seconds with 10 ml/kg with a single dose of NZ17074, meropenem or vehicle at time 0 hour (see Table 1). The dosing was based on a mean weight of 30 g. Mice that weighed 28-32 g received 0.30 ml solution. Mice that weighed 27-28 g received 0.25 ml solution and mice that weighed 32.1-36 g received 0.35 ml solution.
as §2
Colony counts were determined from blood and peritoneal fluid at 0 and 5 hours. The mice were anaesthetized with CO2+O2 and blood was collected from axillary cutdown in 1.5 ml EDTA coated eppendorf tubes. The mice were sacrificed immediately after blood sampling and a total of 2 ml sterile saline was injected i.p. and the abdomen gently massaged before it was opened and fluid sampled with a pipette. Each sample was then 10 fold diluted in saline and 20-microliter spots were applied on blue agar plates. All agar plates were incubated 18-22 hours at 35° C. in ambient air.
The colony counts were performed at the start of treatment and 5 hours after treatment. The CFU numbers are log10 transformed before performing calculations.

C[C@@H](O)[C@H]1C(=O)N2C(C(=O)O)=C(S[C@@H]3CN[C@H](C(=O)N(C)C)C3)[C@H](C)[C@H]12 [meropenem]
CFU levels in thigh compared to vehicle (E. coli AID#172 [1]; 40 mg/kg i.v., 5 hours): slight but not significant reduction | log10 CFU thigh mean (E. coli AID#172 [1]; Meropenem 40 mg/kg single dose, thigh, T = 5, group mean without outlier, not significant vs vehicle): 4.25 log10 CFU/ml | log10 CFU thigh (E. coli AID#172 [1]; Meropenem 40 mg/kg single dose, thigh, T = 5, individual mice, ¤ value excluded from mean as outlier): 3.08¤ log10 CFU/ml and 3.81¤ log10 CFU/ml and 4.99 log10 CFU/ml and 3.94 log10 CFU/ml | CFU levels in blood and peritoneal fluid compared to vehicle (E. coli AID#172 [2]; 40 mg/kg i.v., 5 hours, blood p<0.05, peritoneal fluid p<0.01): significant reduction | Clinical score T = 0 hour (E. coli AID#172 [2]; Meropenem 40 mg/kg single dose group, score at start of treatment, individual mice): 1 | log10 CFU Mean Blood (E. coli AID#172 [2]; Meropenem 40 mg/kg single dose, blood, T = 5, group mean, p < 0.05 vs vehicle): 2.38* log10 CFU/ml | log10 CFU Blood (E. coli AID#172 [2]; Meropenem 40 mg/kg single dose, blood, T = 5, individual mice): 2.48 log10 CFU/ml and 1.70 log10 CFU/ml and 2.95 log10 CFU/ml | Clinical score T = 5 hours (E. coli AID#172 [2]; Meropenem 40 mg/kg single dose, individual mice): 1 (2×) and 0 | log10 CFU mean PF (E. coli AID#172 [2]; Meropenem 40 mg/kg single dose, peritoneal fluid, T = 5, group mean, p < 0.01 vs vehicle): 2.64** log10 CFU/ml | log10 CFU PF (E. coli AID#172 [2]; Meropenem 40 mg/kg single dose, peritoneal fluid, T = 5, individual mice): 3.92 log10 CFU/ml and 1.70 log10 CFU/ml and 2.30 log10 CFU/ml
